Our source for the MIC values is ChEMBL document CHEMBL2046305, “Discovery of selective menaquinone biosynthesis inhibitors against Mycobacterium tuberculosis” (J Med Chem, 2012).

In this test the test system is Mycobacterium tuberculosis. Kind of test: Antibacterial activity against Mycobacterium bovis BCG by microplate alamar blue assay. Type of test: functional. The settings on record: variant bovis BCG. Background: Alamar Blue is a resazurin reagent that responds to reducing activity.

Converted amounts (≈) assume the structure as drawn.

By MIC is commonly meant the lowest concentration that inhibits growth of the organism. High values mean a less susceptible organism, low ones a more susceptible organism. For `CCCCCC[C@H](CN1CCC(COc2cccc(C(=O)c3ccc(Cl)cc3)c2)CC1)OC(N)=O`, 3 mg/L (≈ 5.99 µM) was the least that counted as inhibitory (MIC). Under `CCCCCC[C@H](CN1CCC(COc2cccc(/C(=N\OC)c3ccc(Cl)cc3)c2)CC1)OC(N)=O` stands 2.95 mg/L (≈ 5.56 µM).
